# From publication PMC6017366, “Characterization of Two VAO-Type Flavoprotein Oxidases from Myceliophthora thermophila” (Molecules : A Journal of Synthetic Chemistry and Natural …, 2018)
# Assays:
# [1] = molecular target: T1, MtVAO713 (Thermothelomyces thermophilus, UniProt G2QMS8); assay: GC/MS of conversion to 12-ketooleic acid; assay type: biochemical; conditions: 5 mM ricinoleic acid, 8 µM enzyme, 16 h; oxygen as electron acceptor; 50 mM Tris/Cl pH 8.0, 10% DMSO, 30 or 37 °C; very poor substrate
# T1 construct: gene MYCTH_2309690; mature secreted protein, signal peptide (first 26 residues) removed; homologous expression in M. thermophila C1; monocovalent FAD (His159); N-glycosylated at Asn103 and Asn131; about 60 kDa on SDS-PAGE, 53 kDa by gel filtration
# T1 sequence (G2QMS8 entry or part of it): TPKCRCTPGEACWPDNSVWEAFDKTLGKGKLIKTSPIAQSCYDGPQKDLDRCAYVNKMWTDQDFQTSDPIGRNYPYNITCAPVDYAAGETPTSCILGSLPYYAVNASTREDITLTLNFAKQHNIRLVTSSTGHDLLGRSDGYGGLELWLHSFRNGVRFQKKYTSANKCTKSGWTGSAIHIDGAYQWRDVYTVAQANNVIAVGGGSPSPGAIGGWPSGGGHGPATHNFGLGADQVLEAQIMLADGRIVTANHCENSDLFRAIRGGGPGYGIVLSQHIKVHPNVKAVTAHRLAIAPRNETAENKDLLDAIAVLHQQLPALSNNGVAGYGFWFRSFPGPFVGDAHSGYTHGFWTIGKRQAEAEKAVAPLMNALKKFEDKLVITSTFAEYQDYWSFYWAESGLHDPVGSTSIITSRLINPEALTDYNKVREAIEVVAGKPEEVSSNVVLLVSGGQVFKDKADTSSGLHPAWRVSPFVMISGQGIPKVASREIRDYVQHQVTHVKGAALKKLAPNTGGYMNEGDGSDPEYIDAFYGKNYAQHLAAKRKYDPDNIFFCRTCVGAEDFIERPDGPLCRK
# [2] = molecular target: T2, MtVAO615 (Thermothelomyces thermophilus, UniProt G2QDQ9); assay: X-ray crystal structure ([…] and […] Å); assay type: binding; conditions: covalent; bicovalent 6-S-cysteinyl (Cys222) and 8alpha-N1-histidyl (His157) FAD; crystals at pH 7.5 and pH 5.0
# T2 construct: gene MYCTH_2305637; mature secreted protein, signal peptide (first 26 residues) removed; homologous expression in M. thermophila C1; N-glycosylated; bicovalent FAD (His157, Cys222); predicted 60 kDa, about 70 kDa on SDS-PAGE
# T2 sequence (G2QDQ9 27-574): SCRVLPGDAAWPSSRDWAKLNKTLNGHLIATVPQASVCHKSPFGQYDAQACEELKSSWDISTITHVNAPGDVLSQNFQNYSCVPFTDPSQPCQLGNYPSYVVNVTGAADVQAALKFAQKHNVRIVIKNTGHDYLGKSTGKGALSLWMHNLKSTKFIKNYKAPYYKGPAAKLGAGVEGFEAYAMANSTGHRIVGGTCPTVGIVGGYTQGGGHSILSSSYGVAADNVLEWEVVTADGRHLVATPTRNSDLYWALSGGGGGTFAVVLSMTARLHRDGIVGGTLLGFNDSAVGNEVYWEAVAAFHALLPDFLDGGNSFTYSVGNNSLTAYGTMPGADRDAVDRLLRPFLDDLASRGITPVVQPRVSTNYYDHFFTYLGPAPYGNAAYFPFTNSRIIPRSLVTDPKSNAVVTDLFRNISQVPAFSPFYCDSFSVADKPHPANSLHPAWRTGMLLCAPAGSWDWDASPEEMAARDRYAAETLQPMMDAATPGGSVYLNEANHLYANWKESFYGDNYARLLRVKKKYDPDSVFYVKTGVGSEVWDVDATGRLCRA
smiles,measurement,setting,value
CCCCCC[C@@H](O)C/C=C\CCCCCCCC(=O)O [ricinoleic acid],GC/MS of conversion to 12-ketooleic acid,[1],The conversion of ricinoleic acid by MtVAO713 was confirmed by GC/MS analysis
Cc1cc2nc3c(=O)[nH]c(=O)nc-3n(C[C@H](O)[C@H](O)[C@H](O)COP(=O)(O)OP(=O)(O)OC[C@H]3O[C@@H](n4cnc5c(N)ncnc54)[C@H](O)[C@@H]3O)c2cc1C [FAD],X-ray crystal structure (2.0 and 2.2 Å),[2],MtVAO615 harbors a bicovalently linked 6-S-cysteinyl-8α-N1-histidyl FAD
